Measured values taken from patent US11384078B2, “5,6-fused-bicyclic compounds and compositions for the treatment of parasitic diseases” (NOVARTIS AG, priority 2017, dated 2022).

What was measured:
Type in all cases: cell-based
[1] = test system: Leishmania donovani axenic amastigote; assay: In vitro assay for growth inhibition of Leishmania donovani axenic amastigote (Cell TiterGlo luminescence); conditions: Leishmania donovani, L. donovani axenic amastigotes in vitro; read-out: L. donovani amastigotes EC50
How it was run: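 Compound-treated wells received 9600 axenic amastigotes in RPMI 1640-based medium at pH 5.5 (37 °C, 5% CO2). Growth measured as ATP luminescence (CellTiter-Glo) after 2-day incubation; DMSO and reference compounds served as controls.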

[2] = test system: L. donovani HU3 strain in mouse peritoneal macrophages; assay: Assay for inhibition of parasitemia of Leishmania donovani in mouse macrophages (SYBR Green nuclei count, high-content imaging); conditions: Leishmania donovani, Peritoneal macrophage, L. donovani in mouse peritoneal macrophages; read-out: L. donovani in Mouse Macrophages EC50
How it was run: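 Parasite numbers were counted from SYBR Green-stained nuclei imaged by high-content microscopy after paraformaldehyde fixation and Triton permeabilization. Before this, compound was applied for 5 days at 37° C to BALB/c peritoneal macrophages (2×10^4/well) that had been exposed 24 h to 4×10^5 L. donovani HU3 amastigotes harvested from infected mouse spleens.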

[3] = test system: Trypanosoma cruzi amastigotes cultured in 3T3 fibroblast cells; assay: Assay for growth inhibition of kinetoplastid parasite Trypanosoma cruzi (beta-galactosidase Tulahuen strain, CPRG readout); conditions: Trypanosoma cruzi, Fibroblast, T. cruzi amastigotes in 3T3 fibroblast cells; read-out: Buckner infectious T. cruzi EC50
How it was run: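 3T3 fibroblasts (1,000 cells/well) plated overnight, treated with compound in DMSO, then infected with 10,000 Lac-Z-expressing Tulahuen trypomastigotes. After 6 days, 0.6 mM CPRG with 0.6% NP-40 added for 2 h at room temperature; absorbance gives relative intracellular amastigote numbers. Benznidazole and nifurtimox serve as positive controls.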

[4] = test system: Trypanosoma brucei brucei (Lister 427) strain; assay: Assay for growth inhibition against Trypanosoma brucei brucei (Cell TiterGlo ATP luminescence); conditions: Trypanosoma brucei, T. brucei brucei (Lister 427); read-out: T. Brucei (HAT) EC50
How it was run: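 Growth read-out is cellular ATP by CellTiter-Glo luminescence, measured 30 min after reagent addition, following 2-day incubation at 37 °C in CO2. Parasites (10,000/mL, HMI-9 plus 10% FBS and 10% serum plus) faced 10 threefold dilutions in duplicate; IC50 taken as 50% growth inhibition versus untreated.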

| Compound | EC50 [1] [nM] | EC50 [2] [nM] | EC50 [3] [nM] | EC50 [4] [nM] |
| --- | --- | --- | --- | --- |
| CCC(C)(C)c1cnc2nn(-c3cc(NC(=O)c4ccco4)ccc3F)cc2c1 [Compound 60, N-{4-fluoro-3-[5-(2-methylbutan-2-yl)-2H-pyrazolo[3,4-b]pyridin-2-yl]phenyl}furan-2-carboxamide] | 2000 | 2400 | 440 | 1300 |
| O=C(Nc1ccc(F)c(-n2cc3cc(-c4ccccn4)cnc3n2)c1)c1ccco1 [Compound 64, N-{4-fluoro-3-[5-(pyridin-2-yl)-2H-pyrazolo[3,4-b]pyridin-2-yl]phenyl}furan-2-carboxamide] | 2.2 | 3.9 | 1 | < 23 |
| Cc1cnc(C(=O)Nc2ccc(F)c(-n3cc4cc(C(C)C)cnc4n3)c2)cn1 [Compound 65, N-{4-fluoro-3-[5-(propan-2-yl)-2H-pyrazolo[3,4-b]pyridin-2-yl]phenyl}-5-methylpyrazine-2-carboxamide] | 1000 | 1200 | 960 | 1400 |
| CC1CCC(C(=O)Nc2ccc(F)c(-n3cc4cc(C(C)C)cnc4n3)c2)C1 (stereo not shown) [Compound 66, N-{4-fluoro-3-[5-(propan-2-yl)-2H-pyrazolo[3,4-b]pyridin-2-yl]phenyl}-3-methylcyclopentane-1-carboxamide] | 740 | 870 | 150 | 120 |
| CC(C)c1cnc2nn(-c3cc(NC(=O)c4ccc(F)cn4)ccc3F)cc2c1 [Compound 67, 5-fluoro-N-{4-fluoro-3-[5-(propan-2-yl)-2H-pyrazolo[3,4-b]pyridin-2-yl]phenyl}pyridine-2-carboxamide] | 210 | 310 | 42 | > 50000 |
| Cc1nc(C(=O)Nc2ccc(F)c(-n3cc4cc(C(C)C)cnc4n3)c2)c(C(F)(F)F)o1 [Compound 68, N-{4-fluoro-3-[5-(propan-2-yl)-2H-pyrazolo[3,4-b]pyridin-2-yl]phenyl}-2-methyl-5-(trifluoromethyl)-1,3-oxazole-4-carboxamide] | 2200 | 2800 | 160 | 510 |
| CC(C)c1cnc2nn(-c3cc(NC(=O)CC4CC4)ccc3F)cc2c1 [Compound 69, 2-cyclopropyl-N-{4-fluoro-3-[5-(propan-2-yl)-2H-pyrazolo[3,4-b]pyridin-2-yl]phenyl}acetamide] | 170 | 150 | 68 | 40 |
| CC(C)c1cnc2nn(-c3cc(NC(=O)c4ncc(F)cc4F)ccc3F)cc2c1 [Compound 70, 3,5-difluoro-N-{4-fluoro-3-[5-(propan-2-yl)-2H-pyrazolo[3,4-b]pyridin-2-yl]phenyl}pyridine-2-carboxamide] | 140 | 100 | 22 | 38 |
| CC(C)c1cnc2nn(-c3cc(NC(=O)C4CCC(C(F)(F)F)C4)ccc3F)cc2c1 (stereo not shown) [Compound 71, N-{4-fluoro-3-[5-(propan-2-yl)-2H-pyrazolo[3,4-b]pyridin-2-yl]phenyl}-3-(trifluoromethyl)cyclopentane-1-carboxamide] | 4800 | 2800 | 1400 | 3000 |
| Cc1cc(C(=O)Nc2ccc(F)c(-n3cc4cc(C(C)C)cnc4n3)c2)c(C)o1 [Compound 72, N-{4-fluoro-3-[5-(propan-2-yl)-2H-pyrazolo[3,4-b]pyridin-2-yl]phenyl}-2,5-dimethylfuran-3-carboxamide] | 2100 | 1400 | 180 | 420 |
| Cc1ncoc1C(=O)Nc1ccc(F)c(-n2cc3cc(C(C)C)cnc3n2)c1 [Compound 73, N-{4-fluoro-3-[5-(propan-2-yl)-2H-pyrazolo[3,4-b]pyridin-2-yl]phenyl}-4-methyl-1,3-oxazole-5-carboxamide] | 100 | 220 | 57 | 37 |
| Cc1nc(C(=O)Nc2ccc(F)c(-n3cc4cc(C(C)C)cnc4n3)c2)c(C)o1 [Compound 74, N-{4-fluoro-3-[5-(propan-2-yl)-2H-pyrazolo[3,4-b]pyridin-2-yl]phenyl}-2,5-dimethyl-1,3-oxazole-4-carboxamide] | 760 | 820 | 57 | 110 |
| CC(C)c1cnc2nn(-c3cc(NC(=O)c4cnc(C5CC5)o4)ccc3F)cc2c1 [Compound 75, 2-cyclopropyl-N-{4-fluoro-3-[5-(propan-2-yl)-2H-pyrazolo[3,4-b]pyridin-2-yl]phenyl}-1,3-oxazole-5-carboxamide] | 200 | 170 | 120 | 170 |
| Cc1nc(C2CC2)oc1C(=O)Nc1ccc(F)c(-n2cc3cc(C(C)C)cnc3n2)c1 [Compound 76, 2-cyclopropyl-N-{4-fluoro-3-[5-(propan-2-yl)-2H-pyrazolo[3,4-b]pyridin-2-yl]phenyl}-4-methyl-1,3-oxazole-5-carboxamide] | 1100 | 930 | 410 | 480 |
| Cc1nc(C(F)(F)F)oc1C(=O)Nc1ccc(F)c(-n2cc3cc(C(C)C)cnc3n2)c1 [Compound 78, N{4-fluoro-3-[5-(propan-2-yl)-2H-pyrazolo[3,4-b]pyridin-2-yl]phenyl}-4-methyl-2-(trifluoromethyl)-1,3-oxazole-5-carboxamide] | 800 | 870 | 450 | 530 |
| Cc1nc(COC(C)(C)C)oc1C(=O)Nc1ccc(F)c(-n2cc3cc(C(C)C)cnc3n2)c1 [Compound 79, 2-[(tert-butoxy)methyl]-N-{4-fluoro-3-[5-(propan-2-yl)-2H-pyrazolo[3,4-b]pyridin-2-yl]phenyl}-4-methyl-1,3-oxazole-5-carboxamide] | 3000 | 2400 | 140 | 350 |
| CC(C)c1cnc2nn(-c3cc(NC(=O)C4CCCCO4)ccc3F)cc2c1 (stereo not shown) [Compound 80, N-{4-fluoro-3-[5-(propan-2-yl)-2H-pyrazolo[3,4-b]pyridin-2-yl]phenyl}oxane-2-carboxamide] | 410 | 410 | 92 | 170 |
| Cc1nc(C(=O)Nc2ccc(F)c(-n3cc4cc(C(C)C)cnc4n3)c2)oc1C [Compound 81, N-{4-fluoro-3-[5-(propan-2-yl)-2H-pyrazolo[3,4-b]pyridin-2-yl]phenyl}-4,5-dimethyl-1,3-oxazole-2-carboxamide] | 3160 | 3600 | 420 | 360 |
| CC(C)c1cnc2nn(-c3cc(NC(=O)c4ccccn4)ccc3F)cc2c1 [Compound 82, N-{4-fluoro-3-[5-(propan-2-yl)-2H-pyrazolo[3,4-b]pyridin-2-yl]phenyl}pyridine-2-carboxamide] | 470 | 310 | 59 | 54 |
| Cc1ncc(C(=O)Nc2ccc(F)c(-n3cc4cc(C(C)C)cnc4n3)c2)o1 [Compound 83, N-{4-fluoro-3-[5-(propan-2-yl)-2H-pyrazolo[3,4-b]pyridin-2-yl]phenyl}-2-methyl-1,3-oxazole-5-carboxamide] | 14 | 7 | 7.3 | < 23 |
| CC(C)c1cnc2nn(-c3cc(NC(=O)c4ccc(C#N)cn4)ccc3F)cc2c1 [Compound 84, 5-cyano-N-{4-fluoro-3-[5-(propan-2-yl)-2H-pyrazolo[3,4-b]pyridin-2-yl]phenyl}pyridine-2-carboxamide] | 2400 | 6900 | 3700 | 2030 |
| Cc1nc(C(=O)Nc2ccc(F)c(-n3cc4cc(C(C)C)cnc4n3)c2)co1 [Compound 85, N-{4-fluoro-3-[5-(propan-2-yl)-2H-pyrazolo[3,4-b]pyridin-2-yl]phenyl}-2-methyl-1,3-oxazole-4-carboxamide] | 1200 | 750 | 150 | 180 |
| CC(C)c1cnc2nn(-c3cc(NC(=O)c4nc(Cl)ccc4F)ccc3F)cc2c1 [Compound 86, 6-chloro-3-fluoro-N-{4-fluoro-3-[5-(propan-2-yl)-2H-pyrazolo[3,4-b]pyridin-2-yl]phenyl}pyridine-2-carboxamide] | 130 | 120 | 14 | < 23 |
| CC(C)c1cnc2nn(-c3cc(NC(=O)c4cnccn4)ccc3F)cc2c1 [Compound 87, N-(4-fluoro-3-(5-isopropyl-2H-pyrazolo[3,4-b]pyridin-2-yl)phenyl)pyrazine-2-carboxamide] | 62 | 71 | 16 | < 23 |
| CC(C)c1cnc2nn(-c3cc(NC(=O)C4CCCO4)ccc3F)cc2c1 (stereo not shown) [Compound 88, N-{4-fluoro-3-[5-(propan-2-yl)-2H-pyrazolo[3,4-b]pyridin-2-yl]phenyl}oxolane-2-carboxamide] | 5300 | 3200 | 1800 | 1500 |
